Assay results taken from publication PMC12155096 (International Journal of Molecular Sciences, 2025).
Counter-ions that a name gives are not always drawn. Like-named read-outs stand apart in the source and are kept apart here.

How the values were obtained:
human CYP2C19 [1] = molecular target: T1, human CYP2C19 (Homo sapiens, UniProt P33261); test: biochemical
human CYP1A2 [2] = molecular target: T2, human CYP1A2 (Homo sapiens, UniProt P05177); test: biochemical
T2 sequence (P05177 1-516): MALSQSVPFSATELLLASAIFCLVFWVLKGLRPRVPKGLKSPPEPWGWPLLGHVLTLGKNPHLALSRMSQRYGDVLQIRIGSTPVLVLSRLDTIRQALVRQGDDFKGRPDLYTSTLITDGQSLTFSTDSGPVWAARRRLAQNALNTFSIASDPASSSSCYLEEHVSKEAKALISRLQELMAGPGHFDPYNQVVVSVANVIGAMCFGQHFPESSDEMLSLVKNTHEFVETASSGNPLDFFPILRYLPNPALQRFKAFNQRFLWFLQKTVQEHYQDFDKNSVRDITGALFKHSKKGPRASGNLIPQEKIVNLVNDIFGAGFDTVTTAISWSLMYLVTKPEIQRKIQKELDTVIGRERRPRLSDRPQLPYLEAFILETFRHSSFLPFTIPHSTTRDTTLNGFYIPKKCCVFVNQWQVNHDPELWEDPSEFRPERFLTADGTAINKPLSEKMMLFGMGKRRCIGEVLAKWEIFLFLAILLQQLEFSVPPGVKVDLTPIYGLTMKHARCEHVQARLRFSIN

human CYP2D6 = human CYP2D6 (Homo sapiens, UniProt P10635); test: biochemical
CYP3A4 = CYP3A4 (Homo sapiens, UniProt P08684); test: biochemical
human CYP2C9 [3] = molecular target: T3, human CYP2C9 (Homo sapiens, UniProt P11712); test: biochemical
[4] = molecular target: Photinus pyralis (firefly) luciferase (Photinus pyralis, UniProt P08659); test: biochemical; assay type: biochemical
human CYP1A2 [5] = molecular target: T2, human CYP1A2
human CYP2C9 [6] = molecular target: T3, human CYP2C9
human CYP2C19 [7] = molecular target: T1, human CYP2C19
[8] = CYP2C19 IC50 (half-maximal inhibitory concentration)
[9] = CYP2D6 IC50 (half-maximal inhibitory concentration)
[10] = CYP3A4 IC50 (half-maximal inhibitory concentration)
[11] = CYP2C9 IC50 (half-maximal inhibitory concentration)
[12] = CYP1A2 IC50 (half-maximal inhibitory concentration)
[13] = CYP2C19 AC50 (half-maximal activity concentration)
[14] = CYP1A2 AC50 (half-maximal activity concentration)
[15] = CYP2D6 AC50 (half-maximal activity concentration)
[16] = CYP3A4 AC50 (half-maximal activity concentration)
[17] = CYP2C9 AC50 (half-maximal activity concentration)

Photinus pyralis (firefly) luciferase, sequence (P08659 whole entry): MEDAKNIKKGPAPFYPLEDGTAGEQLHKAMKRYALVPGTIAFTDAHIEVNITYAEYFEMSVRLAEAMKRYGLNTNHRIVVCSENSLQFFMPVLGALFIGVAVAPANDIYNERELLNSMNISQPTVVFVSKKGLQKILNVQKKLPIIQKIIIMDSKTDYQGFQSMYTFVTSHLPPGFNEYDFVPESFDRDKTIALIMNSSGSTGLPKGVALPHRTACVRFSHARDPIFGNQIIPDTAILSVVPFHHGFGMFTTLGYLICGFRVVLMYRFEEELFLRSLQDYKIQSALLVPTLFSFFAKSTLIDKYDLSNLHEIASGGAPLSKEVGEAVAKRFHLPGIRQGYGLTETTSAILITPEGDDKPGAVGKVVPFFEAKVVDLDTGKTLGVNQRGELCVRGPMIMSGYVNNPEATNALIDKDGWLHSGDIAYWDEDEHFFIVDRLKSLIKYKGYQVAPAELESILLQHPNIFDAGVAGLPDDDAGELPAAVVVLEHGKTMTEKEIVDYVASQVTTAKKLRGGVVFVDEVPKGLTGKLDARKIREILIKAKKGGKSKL
CYP3A4, sequence (P08684 whole entry): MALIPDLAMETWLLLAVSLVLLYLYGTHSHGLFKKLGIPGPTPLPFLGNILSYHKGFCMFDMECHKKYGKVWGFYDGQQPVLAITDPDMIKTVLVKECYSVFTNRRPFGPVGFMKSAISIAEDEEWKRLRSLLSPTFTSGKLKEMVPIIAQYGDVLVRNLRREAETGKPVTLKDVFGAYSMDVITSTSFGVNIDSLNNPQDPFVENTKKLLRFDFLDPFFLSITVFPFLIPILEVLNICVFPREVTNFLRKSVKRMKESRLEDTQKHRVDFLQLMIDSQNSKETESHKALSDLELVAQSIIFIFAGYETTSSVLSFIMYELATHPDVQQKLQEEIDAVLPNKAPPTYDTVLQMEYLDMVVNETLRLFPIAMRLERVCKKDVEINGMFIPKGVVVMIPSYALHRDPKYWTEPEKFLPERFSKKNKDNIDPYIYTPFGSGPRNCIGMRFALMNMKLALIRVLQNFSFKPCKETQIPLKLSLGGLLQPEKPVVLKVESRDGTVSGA
T3 sequence (P11712 whole entry): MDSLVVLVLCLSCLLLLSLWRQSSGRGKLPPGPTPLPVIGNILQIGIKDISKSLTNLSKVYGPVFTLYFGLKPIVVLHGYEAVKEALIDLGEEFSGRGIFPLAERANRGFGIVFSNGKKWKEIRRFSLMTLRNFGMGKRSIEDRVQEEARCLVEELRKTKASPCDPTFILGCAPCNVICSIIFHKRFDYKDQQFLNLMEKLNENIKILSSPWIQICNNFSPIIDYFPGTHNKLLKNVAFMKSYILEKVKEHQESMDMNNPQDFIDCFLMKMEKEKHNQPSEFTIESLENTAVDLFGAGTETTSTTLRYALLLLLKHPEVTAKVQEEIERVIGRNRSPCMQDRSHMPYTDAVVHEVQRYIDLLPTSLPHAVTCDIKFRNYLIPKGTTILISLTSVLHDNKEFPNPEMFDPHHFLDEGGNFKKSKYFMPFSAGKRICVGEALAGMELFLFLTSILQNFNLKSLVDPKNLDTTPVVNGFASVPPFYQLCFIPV
human CYP2D6, sequence (P10635 whole entry): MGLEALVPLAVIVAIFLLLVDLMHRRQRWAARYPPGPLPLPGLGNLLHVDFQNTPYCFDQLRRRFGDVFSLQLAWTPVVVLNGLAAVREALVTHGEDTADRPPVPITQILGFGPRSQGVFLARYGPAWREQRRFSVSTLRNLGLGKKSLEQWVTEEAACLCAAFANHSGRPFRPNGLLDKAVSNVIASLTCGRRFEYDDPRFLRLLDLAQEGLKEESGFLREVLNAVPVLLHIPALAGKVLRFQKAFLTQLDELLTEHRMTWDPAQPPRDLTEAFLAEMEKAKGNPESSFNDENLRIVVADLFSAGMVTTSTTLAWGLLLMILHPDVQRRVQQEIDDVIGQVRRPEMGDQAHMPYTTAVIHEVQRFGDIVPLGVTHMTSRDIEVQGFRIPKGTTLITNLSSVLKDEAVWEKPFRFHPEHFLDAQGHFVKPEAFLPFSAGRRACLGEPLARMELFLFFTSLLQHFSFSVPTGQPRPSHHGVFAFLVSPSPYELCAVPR
T1 sequence (P33261 whole entry): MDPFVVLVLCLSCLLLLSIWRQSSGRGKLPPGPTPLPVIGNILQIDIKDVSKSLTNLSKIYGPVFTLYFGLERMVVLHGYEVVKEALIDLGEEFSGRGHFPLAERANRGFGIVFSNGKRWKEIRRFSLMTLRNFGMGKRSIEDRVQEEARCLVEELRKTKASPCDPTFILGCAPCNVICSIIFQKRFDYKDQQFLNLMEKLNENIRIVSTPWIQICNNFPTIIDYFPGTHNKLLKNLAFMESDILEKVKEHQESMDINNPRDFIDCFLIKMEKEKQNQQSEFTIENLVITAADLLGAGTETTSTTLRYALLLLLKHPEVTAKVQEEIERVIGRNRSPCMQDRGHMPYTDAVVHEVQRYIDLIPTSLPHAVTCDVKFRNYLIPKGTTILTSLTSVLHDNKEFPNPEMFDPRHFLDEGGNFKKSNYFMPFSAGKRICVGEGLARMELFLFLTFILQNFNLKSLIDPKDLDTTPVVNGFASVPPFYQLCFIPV

## ClC1=C(Cl)C2(Cl)C3C4C=CC(C4)C3C1(Cl)C2(Cl)Cl (centres unmarked) [Aldrin]
Human CYP2C19 [1]; CYP2C19 IC50
  IC50: 27.8 µM
Human CYP1A2 [2]; CYP1A2 IC50
  IC50: 35.5 µM
Human CYP2D6; CYP2D6 IC50
  IC50: 44.9 µM
CYP3A4; CYP3A4 IC50
  IC50: 280 nM
Human CYP2C9 [3]; CYP2C9 IC50
  IC50: 33.6 µM
[4]
  Luciferase IC50: Inactive

## COc1ccc(C(O)(c2cncnc2)C2CC2)cc1 (centres unmarked) [Ancymidol]
Human CYP2C19 [1]; [8]
  IC50: 19.3 µM
Human CYP2D6; [9]
  IC50: 47 µM
CYP3A4; [10]
  IC50: 800 nM
Human CYP2C9 [3]; [11]
  IC50: 38.2 µM
Human CYP1A2 [5]
  CYP1A2 IC50 (half-maximal inhibitory concentration): Inactive
[4]
  Luciferase IC50 (half-maximal inhibitory concentration): Inactive

## CC(C)(C)C(O)C(Oc1ccc(-c2ccccc2)cc1)n1cncn1 (centres unmarked) [Bitertanol]
Human CYP2C19 [1]; [8]
  IC50: 48.3 µM
Human CYP1A2 [2]; [12]
  IC50: 48.8 µM
Human CYP2D6; [9]
  IC50: 63.5 µM
CYP3A4; [10]
  IC50: 670 nM
Human CYP2C9 [3]; [11]
  IC50: 7.56 µM
[4]
  Luciferase IC50 (half-maximal inhibitory concentration): Inactive

## Clc1ccc(C2(Cn3cncn3)CC(Br)CO2)c(Cl)c1 (centres unmarked) [Bromuconazole]
Human CYP2C19 [1]; [8]
  IC50: 0.12 µM
Human CYP1A2 [2]; [12]
  IC50: 21.7 µM
Human CYP2D6; [9]
  IC50: 21 µM
CYP3A4; [10]
  IC50: 80 nM
Human CYP2C9 [3]; [11]
  IC50: 3.35 µM
[4]
  Luciferase IC50 (half-maximal inhibitory concentration): Inactive

## COc1cc(N)c(Cl)cc1C(=O)NC1CCN(Cc2ccccc2)CC1 [Clebopride maleate]
Human CYP2C9 [6]
  CYP2C9 IC50 (half-maximal inhibitory concentration): Inactive
Human CYP2C19 [1]
  IC50: 38.9 µM
Human CYP2D6
  IC50: 0.03 µM
CYP3A4
  IC50: 2060 ± 470 nM
Human CYP1A2 [5]
  CYP1A2 IC50 (half-maximal inhibitory concentration): Inactive
[4]
  Luciferase IC50 (half-maximal inhibitory concentration): Inactive

## COC(=O)N(C(=O)N1CO[C@@]2(C(=O)OC)Cc3cc(Cl)ccc3C2=N1)c1ccc(OC(F)(F)F)cc1 [Indoxacarb]
Human CYP2C19 [1]; [8]
  IC50: 0.17 µM
Human CYP2D6; [9]
  IC50: 14 µM
CYP3A4; [10]
  IC50: 2610 nM
Human CYP2C9 [3]; [11]
  IC50: 3.35 µM
Human CYP1A2 [5]
  CYP1A2 IC50 (half-maximal inhibitory concentration): Inactive
[4]
  Luciferase IC50 (half-maximal inhibitory concentration): Inactive

## Cc1ccnc2ccccc12 [Lepidine]
Human CYP2C9 [6]
  CYP2C9 AC50 (half-maximal activity concentration): Inconclusive activator
Human CYP2C19 [7]
  CYP2C19 AC50 (half-maximal activity concentration): Inconclusive
Human CYP1A2 [2]
  AC50: 38.4 µM
Human CYP2D6
  AC50: 61.3 µM
CYP3A4
  AC50: 31.1 µM

## COc1cccc(C(=O)NN(C(=O)c2cc(C)cc(C)c2)C(C)(C)C)c1C [Methoxyfenozide]
Human CYP2C19 [1]; [8]
  IC50: 3.43 µM
Human CYP2D6; [9]
  IC50: 44 µM
CYP3A4; [10]
  IC50: 740 nM
Human CYP2C9 [3]; [11]
  IC50: 18.1 µM
Human CYP1A2 [5]
  CYP1A2 IC50 (half-maximal inhibitory concentration): Inactive
[4]
  Luciferase IC50 (half-maximal inhibitory concentration): Inactive

## OC1(c2ccc(Cl)c(C(F)(F)F)c2)CCN(CCCC(c2ccc(F)cc2)c2ccc(F)cc2)CC1 [Penfluridol]
Human CYP2C19 [1]
  AC50: 16.6 ± 4.88 µM
Human CYP1A2 [2]
  AC50: 29.9 ± 4.12 µM
Human CYP2D6
  AC50: 5.85 ± 1.65 µM
CYP3A4
  AC50: 2.39 ± 0.41 µM
Human CYP2C9 [3]
  AC50: 10.3 ± 1.85 µM

## CCCSP(=O)(OCC)Oc1ccc(Br)cc1Cl (centres unmarked) [Profenofos]
Human CYP2C19 [1]; [13]
  AC50: 4.22 µM
Human CYP1A2 [2]; [14]
  AC50: 4.52 µM
Human CYP2D6; [15]
  AC50: 13.8 µM
CYP3A4; [16]
  AC50: 3.25 µM
Human CYP2C9 [3]; [17]
  AC50: 9.76 µM

## CC(=O)[C@H]1CC[C@H]2[C@@H]3CCC4=CC(=O)CC[C@]4(C)[C@H]3CC[C@]12C [Progesterone]
Human CYP2C19 [1]; [13]
  AC50: 4.06 µM
Human CYP1A2 [2]; [14]
  AC50: 29.9 µM
Human CYP2D6; [15]
  AC50: 47.7 µM
CYP3A4; [16]
  AC50: 2.35 µM
Human CYP2C9 [3]; [17]
  AC50: 26.5 µM

## CNC(=O)Oc1cc(C)cc(C(C)C)c1 [Promecarb]
Human CYP2C9 [6]
  CYP2C9 AC50 (half-maximal activity concentration): Inactive
Human CYP2C19 [1]; [13]
  AC50: 42.2 µM
Human CYP1A2 [2]; [14]
  AC50: 26.9 µM
Human CYP2D6; [15]
  AC50: 58.1 µM
CYP3A4; [16]
  AC50: 25.3 µM

## O=C(CCN1CCC(c2ccccc2)C1)c1ccc2c(c1)OCCO2 (centres unmarked) [Proroxan]
Human CYP2C9 [6]
  CYP2C9 AC50 (half-maximal activity concentration): Inconclusive inhibitor
Human CYP2C19 [1]; [13]
  AC50: 39.1 µM
Human CYP1A2 [2]; [14]
  AC50: 32.3 µM
Human CYP2D6; [15]
  AC50: 2.28 µM
CYP3A4; [16]
  AC50: 28.8 µM

## CCOC(=O)C(C)Oc1ccc(Oc2cnc3cc(Cl)ccc3n2)cc1 (centres unmarked) [Quizalofop-ethyl]
Human CYP2C19 [1]; [13]
  AC50: 36.2 µM
Human CYP1A2 [2]; [14]
  AC50: 36.3 µM
Human CYP2D6; [15]
  AC50: 42.5 µM
CYP3A4; [16]
  AC50: 12.3 µM
Human CYP2C9 [3]; [17]
  AC50: 17.4 µM

## COP(=O)(OC)OC(=CCl)c1cc(Cl)c(Cl)cc1Cl [Tetrachlorovinphos]
Human CYP2C19 [1]; [13]
  AC50: 6.81 µM
Human CYP1A2 [2]; [14]
  AC50: 3 µM
Human CYP2D6; [15]
  AC50: 33.7 µM
CYP3A4; [16]
  AC50: 3.72 µM
Human CYP2C9 [3]; [17]
  AC50: 29 µM

## Cc1ccccc1OP(=O)(Oc1ccccc1C)Oc1ccccc1C [Tri-o-cresyl phosphate]
Human CYP2C19 [1]; [13]
  AC50: 1.3 µM
Human CYP1A2 [2]; [14]
  AC50: 32 µM
Human CYP2D6; [15]
  AC50: 43.3 µM
CYP3A4; [16]
  AC50: 2.11 µM
Human CYP2C9 [3]; [17]
  AC50: 4.9 µM

## COP(=O)(OC)O/C(=C\Cl)c1cc(Cl)c(Cl)cc1Cl [Z-Tetrachlorvinphos]
Human CYP2C19 [1]; [13]
  AC50: 5.82 µM
Human CYP1A2 [2]; [14]
  AC50: 2.28 µM
Human CYP2D6; [15]
  AC50: 56.6 µM
CYP3A4; [16]
  AC50: 2.49 µM
Human CYP2C9 [3]; [17]
  AC50: 38.8 µM
